Where a name gives a salt, the structure may show the parent alone.
Target: T1, Cloned human M1 receptor (CHRM1) (Homo sapiens, UniProt P11229)
T1 construct: expressed in transfected cells; host or cells: HEK293
T1 sequence (P11229 1-460): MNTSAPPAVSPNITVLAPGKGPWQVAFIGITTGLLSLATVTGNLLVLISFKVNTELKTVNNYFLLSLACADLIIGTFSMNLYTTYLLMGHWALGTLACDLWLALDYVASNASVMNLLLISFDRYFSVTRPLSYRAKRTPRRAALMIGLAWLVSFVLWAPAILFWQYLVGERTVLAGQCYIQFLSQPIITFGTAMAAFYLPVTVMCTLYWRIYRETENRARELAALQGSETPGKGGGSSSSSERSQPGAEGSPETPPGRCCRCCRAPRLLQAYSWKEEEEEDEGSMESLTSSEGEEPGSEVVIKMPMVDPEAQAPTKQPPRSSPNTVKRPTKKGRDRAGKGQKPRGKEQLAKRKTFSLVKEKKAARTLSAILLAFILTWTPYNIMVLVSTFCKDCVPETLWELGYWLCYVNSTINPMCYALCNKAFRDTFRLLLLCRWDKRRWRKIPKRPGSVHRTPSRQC
Assay: CHRM1 Ca++ Flux Assay (HEK293 M1 cells, agonist mode)
Format: cell-based
Conditions: for Emax / M1 FDSS PA %: Percent Activity (PA); for Emax: read-out: M1 FDSS PA %; for EC50: geometric mean if tested more than once, read-out: M1 FDSS EC50
How it was run: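 In agonist mode, compound-induced intracellular Ca++ mobilization was recorded for 3 min by fluorescent imager. The cells were HEK293 stably expressing cloned human CHRM1, in Ca/Mg-free HBSS with 20 mM HEPES. Triplicate 11-point dose-responses were fitted by four-parameter regression and normalized to the carbachol EC100 response.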

SMILES	Emax	EC50	M1 FDSS PA %
CC(C)(O)CCOc1ccc(F)cc1C1CCN([C@@H]2COC3(C2)CN(c2nncs2)C3)CC1 [Example 5P, (S)-4-(2-(1-(2-(1,3,4-thiadiazol-2-yl)-5-oxa-2-azaspiro[3.4]octan-7-yl)piperidin-4-yl)-4-fluorophenoxy)-2-methylbutan-2-ol]	91%	413 nM	
c1ccc([C@@H]2CCOC2)c(C2CCN([C@@H]3COC4(C3)CN(c3nnco3)C4)CC2)c1 (single isomer, unassigned) [Example 3A, (S)-2-(1,3,4-oxadiazol-2-yl)-7-(4-(2-((S)-tetrahydrofuran-3-yl)phenyl)piperidin-1-yl)-5-oxa-2-azaspiro[3.4]octane or (S)-2-(1,3,4-oxadiazol-2-yl)-7-(4-(2-((R)-tetrahydrofuran-3-yl)phenyl)piperidin-1-yl)-5-oxa-2-azaspiro[3.4]octane]		1110 nM	85%
COc1cc(F)ccc1C1CCN([C@@H]2COC3(C2)CN(c2ncns2)C3)CC1 [Example 5E, (S)-7-(4-(4-fluoro-2-methoxyphenyl)piperidin-1-yl)-2-(1,2,4-thiadiazol-5-yl)-5-oxa-2-azaspiro[3.4]octane]	29%	2580 nM	
Fc1ccc(O[C@H]2CCOC2)c(C2CCN([C@@H]3COC4(C3)CN(c3nncs3)C4)CC2)c1 [Example 5O, (S)-7-(4-(5-fluoro-2-(((S)-tetrahydrofuran-3-yl)oxy)phenyl)piperidin-1-yl)-2-(1,3,4-thiadiazol-2-yl)-5-oxa-2-azaspiro[3.4]octane]	78%	789 nM	
c1ccc(C2CCN([C@@H]3COC4(C3)CN(c3nnco3)C4)CC2)c(CC2CCOCC2)c1 [Example 3G, (S)-2-(1,3,4-oxadiazol-2-yl)-7-(4-(2-((tetrahydro-2H-pyran-4-yl)methyl)phenyl)piperidin-1-yl)-5-oxa-2-azaspiro[3.4]octane]	44%	7240 nM	
c1ccc(C2CCN([C@@H]3COC4(C3)CN(c3nncs3)C4)CC2)c(OC2COC2)c1 [Example 5Q, (S)-7-(4-(2-(oxetan-3-yloxy)phenyl)piperidin-1-yl)-2-(1,3,4-thiadiazol-2-yl)-5-oxa-2-azaspiro[3.4]octane formate salt]	86%	864 nM	
Fc1cc(F)c(OC2COC2)c(C2CCN([C@@H]3COC4(C3)CN(c3nnco3)C4)CC2)c1 [Example 2EE, (S)-7-(4-(3,5-difluoro-2-(oxetan-3-yloxy)phenyl)piperidin-1-yl)-2-(1,3,4-oxadiazol-2-yl)-5-oxa-2-azaspiro[3.4]octane]	95%	2340 nM	
CC(C)(O)COc1ccc(F)cc1C1CCN([C@@H]2COC3(C2)CN(c2ncns2)C3)CC1 [Example 5C, (S)-1-(2-(1-(2-(1,2,4-thiadiazol-5-yl)-5-oxa-2-azaspiro[3.4]octan-7-yl)piperidin-4-yl)-4-fluorophenoxy)-2-methylpropan-2-ol]	60%	1600 nM	
Fc1ccc(OC[C@H]2CCO2)c(C2CCN([C@@H]3COC4(C3)CN(c3nncs3)C4)CC2)c1.O=C(O)C(F)(F)F (single isomer, unassigned) [Example 2D, (S)-7-(4-(5-fluoro-2-(((R)-oxetan-2-yl)methoxy)phenyl)piperidin-1-yl)-2-(1,3,4-thiadiazol-2-yl)-5-oxa-2-azaspiro[3.4]octane trifluoroacetate or (S)-7-(4-(5-fluoro-2-(((S)-oxetan-2-yl)methoxy)phenyl)piperidin-1-yl)-2-(1,3,4-thiadiazol-2-yl)-5-oxa-2-azaspiro[3.4]octane trifluoroacetate]		289 nM	72%
CC(C)(C#N)COc1ccc(F)cc1C1CCN([C@@H]2COC3(C2)CN(c2nnco2)C3)CC1 [Example 1E, (S)-3-(2-(1-(2-(1,3,4-oxadiazol-2-yl)-5-oxa-2-azaspiro[3.4]octan-7-yl)piperidin-4-yl)-4-fluorophenoxy)-2,2-dimethylpropanenitrile]	84%	563 nM	
